Patent US8084459B2, “Substituted quinazolinones for treating neurological conditions” (Prana Biotechnology Ltd, priority 2004, dated 2011)

How the values were obtained:
Aβ 1-42 = target: T1, Aβ 1-42 (Homo sapiens, UniProt P05067); test: Assay 1 Fluorometric H2O2 assay (peroxide); assay type: biochemical; conditions: inhibition of H2O2 generation by Aβ with copper
T1 construct: The reaction solutions contained Aβ 1-42 at concentrations
Outline: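 DCF fluorescence (ex 485/em 530 nm) after 60 min at 37 °C in PBS pH 7.4; Aβ 1-42 (50 nM–1 μM) with Cu-Gly (2:1 to Aβ), dopamine 5 μM or ascorbate, deacetylated DCF 100 μM, HRP 0.1 μM, and test compound. H2O2 quantified against H2O2 standards.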

[1] = tested on: soluble and insoluble Aβ in the brain; test: Assay 11 effect on Aβ deposits in transgenic animals (soluble and insoluble Aβ, Western blot); assay type: in vivo, APP2576 transgenic mouse; conditions: APP2576 mice; for Tg mice Insoluble Fraction: % change compared with vehicle alone control mice: insoluble Aβ; for Tg mice Soluble Fraction: % change compared with vehicle alone control mice: soluble Aβ
[2] = Assay 3(d) test compound cytotoxicity (MTS); assay type: cell-based; conditions: BL6Jx129sv, mouse, primary cortical neuronal cultures, cortical neurons; for viability at 4 days, 1 µM: read-out: Assay 3(d) Cytotoxicity (% viable at 1 uM); for viability at 4 days, 10 µM: read-out: Assay 3(d) Cytotoxicity (% viable at 10 uM)
Outline: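 E14 mouse (BL6Jx129sv) primary cortical neurons cultured 5 days, then exposed on day 6 to compound prediluted in Neurobasal/B27 without antioxidants, working solutions 2.5, 25, 250 uM, in triplicate for 4 days at 37 °C. Viability by MTS, 2 h at 37 °C, absorbance 560 nm.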

T1 sequence (P05067 672-713 limits assumed): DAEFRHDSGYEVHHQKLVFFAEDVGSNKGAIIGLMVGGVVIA

| IC50 (Aβ 1-42) | Compound | Tg mice Insoluble Fraction: % change compared with vehicle alone control mice [1] | Tg mice Soluble Fraction: % change compared with vehicle alone control mice [1] | viability at 4 days, 1 µM [2] | viability at 4 days, 10 µM [2] |
| --- | --- | --- | --- | --- | --- |
| 360 nM | Cc1nc(Cn2cnc3c(O)c(Cl)cc(Cl)c3c2=O)cs1 [Compound 1084] | −17% (insol), | −29% (sol) | 100% | 93% |
| 480 nM | O=c1c2c(Cl)cc(Cl)c(O)c2ncn1Cc1ccccn1 [Compound 1077] | Negligible effect on | −17% (sol), | 101% | 86% |
| 730 nM | O=c1c2c(Cl)cc(Cl)c(O)c2ncn1CCN1CCCC1 [Compound 1075] | +9% (insol), | −19% (sol), | 99% | 87% |
| 370 nM | Cc1noc(C)c1Cn1cnc2c(O)c(Cl)cc(Cl)c2c1=O [Compound 1085] |  |  | 99% | 72% |

| Compound | IC50 (Aβ 1-42) | Tg mice Insoluble Fraction: % change compared with vehicle alone control mice [1] | Tg mice Soluble Fraction: % change compared with vehicle alone control mice [1] | viability at 4 days, 1 µM [2] | viability at 4 days, 10 µM [2] |
| --- | --- | --- | --- | --- | --- |
| Br.CCCn1cnc2c(O)c(Cl)cc(Cl)c2c1=O [Compound 1097] | 280 nM | +1% (insol) | −22% (sol) | 99% | 78% |
